Source: patent US20260335299A1, “SUBSTITUTED OXOISOINDOLINYL PIPERIDINE-2,6-DIONE COMPOUND AS ANTICANCER AGENT” (BRISTOL-MYERS SQUIBB COMPANY, priority 2023, published 2026)

Legend:
IKZF2 Helios [1] = biological target: T1, IKZF2 Helios (Homo sapiens, UniProt Q96SW2+Q9UKS7); assay: Jurkat Cellular Degradation Assay (Helios); assay type: cell-based; design: endogenous in cells; host or cells: Jurkat cells; conditions: Jurkat cells, 72 h
Experimental: Jurkat cells were plated at 80,000 cells/well in 40 μL RPMI+10% FBS in a 384-well cell culture plate prior to using acoustic dispensing technology for adding a compound of interest. Cell cultures were incubated for 72 h at 37° C. and 5% CO2. In order to facilitate analysis, cell cultures were spun down at 200 rpm for 5 min and the supernatant was discarded. After shaking the plate to dislodge the cell pellet, cells were resuspended in 50 μL of Fixation Buffer (eBioscience FoxP3 buffer set 00-5523-00) for 60 min at room temperature. After centrifuging and discarding the supernatant, cells were permeabilized with 50 μL of Permeabilization buffer (eBioscience FoxP3 buffer set 00-5523-00) for 10 min at room temperature. […] Stained cells were resuspended in 25 μL of flow cytometry staining buffer [PBS+0.2% bovine serum albumin (BSA)] and analyzed using an Intellicyt Ique Plus flow cytometer.
Table A-1 lists the maximum observed degradation of the IKZF1 protein, IKZF2 protein, and IKZF3 protein as measured in the Jurkat Cellular Degradation assay. […]

IKZF2 Helios [2] = biological target: T1, IKZF2 Helios; assay: Human Regulatory T Cell Degradation Assay (Helios); assay type: cell-based; design: Human CD4+ T cells were isolated from fresh healthy leukopaks; endogenous in cells; host or cells: FACS-sorted primary human regulatory T cells from healthy leukopaks; conditions: human regulatory T cells, 20 h
Experimental: Cryopreserved human regulatory T cells were thawed in RPMI+10% FBS+20 ng/mL IL-2. After being spun at 1200 rpm for 5 mins, the cells were resuspended in RPMI+10% FBS+20 ng/ml and rested at 37° C. with 5% CO2 for 3 hours. The cells were then plated at 40,000 cells/well in 40 μL RPMI+10% FBS+20 ng/mL human IL-2 in a 384 well cell culture plate prior to using acoustic dispensing technology (ECHO 555) for adding compounds of interest. Cell cultures were incubated for 20 hours at 37° C. and 5% CO2. In order to facilitate analysis, cell cultures were spun down at 1200 rpm for 5 minutes and the supernatant was discarded using an EL406 plate washer. After washing three times with […] PBS, cell pellets were resuspended in 50 μL of […] viability staining solution (Life Technologies, Cat #L34975) and incubated for 30 minutes on ice protected from light. Cells were washed three times with 70 μL PBS+0.5% BSA using an EL406 plate washer. […] Stained cells were resuspended in 30 μL of flow cytometry staining buffer (PBS+0.5% BSA) and analyzed using an Intellicyt Ique Plus flow cytometer.
Table B-1 lists the maximum observed degradation of the IKZF1 protein and IKZF2 protein as measured in the Human Regulatory T Cell Degradation assay. […]

[3] = concentration reducing protein level by 50% compared to DMSO alone

T1 sequence (Q9UKS7 whole entry): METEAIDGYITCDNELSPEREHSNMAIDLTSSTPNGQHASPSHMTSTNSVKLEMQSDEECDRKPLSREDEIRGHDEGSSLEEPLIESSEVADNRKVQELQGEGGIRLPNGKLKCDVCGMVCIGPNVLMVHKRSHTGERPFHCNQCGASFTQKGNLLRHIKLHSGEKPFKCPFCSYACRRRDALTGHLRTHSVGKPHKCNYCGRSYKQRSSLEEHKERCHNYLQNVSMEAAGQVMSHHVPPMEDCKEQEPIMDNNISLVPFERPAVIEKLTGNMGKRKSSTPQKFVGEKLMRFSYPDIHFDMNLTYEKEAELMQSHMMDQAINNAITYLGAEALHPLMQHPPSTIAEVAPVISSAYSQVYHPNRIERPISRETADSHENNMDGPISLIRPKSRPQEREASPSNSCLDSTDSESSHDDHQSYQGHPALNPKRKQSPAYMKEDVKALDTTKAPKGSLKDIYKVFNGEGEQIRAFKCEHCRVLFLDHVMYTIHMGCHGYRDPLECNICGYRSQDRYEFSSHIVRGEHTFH
T1 sequence (Q96SW2 whole entry): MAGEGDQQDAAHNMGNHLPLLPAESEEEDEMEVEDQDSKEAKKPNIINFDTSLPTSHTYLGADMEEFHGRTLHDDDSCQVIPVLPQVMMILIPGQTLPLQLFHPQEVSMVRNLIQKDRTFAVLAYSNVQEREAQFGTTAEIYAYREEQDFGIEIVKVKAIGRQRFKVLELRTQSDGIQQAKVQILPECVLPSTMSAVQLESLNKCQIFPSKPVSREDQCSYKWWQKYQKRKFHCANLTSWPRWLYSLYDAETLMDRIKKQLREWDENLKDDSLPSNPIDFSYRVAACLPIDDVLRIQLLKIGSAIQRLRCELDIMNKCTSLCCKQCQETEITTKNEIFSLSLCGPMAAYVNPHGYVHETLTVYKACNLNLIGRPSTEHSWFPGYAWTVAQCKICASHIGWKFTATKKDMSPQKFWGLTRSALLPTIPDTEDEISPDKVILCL
T1 sequence (Q16531 whole entry partner): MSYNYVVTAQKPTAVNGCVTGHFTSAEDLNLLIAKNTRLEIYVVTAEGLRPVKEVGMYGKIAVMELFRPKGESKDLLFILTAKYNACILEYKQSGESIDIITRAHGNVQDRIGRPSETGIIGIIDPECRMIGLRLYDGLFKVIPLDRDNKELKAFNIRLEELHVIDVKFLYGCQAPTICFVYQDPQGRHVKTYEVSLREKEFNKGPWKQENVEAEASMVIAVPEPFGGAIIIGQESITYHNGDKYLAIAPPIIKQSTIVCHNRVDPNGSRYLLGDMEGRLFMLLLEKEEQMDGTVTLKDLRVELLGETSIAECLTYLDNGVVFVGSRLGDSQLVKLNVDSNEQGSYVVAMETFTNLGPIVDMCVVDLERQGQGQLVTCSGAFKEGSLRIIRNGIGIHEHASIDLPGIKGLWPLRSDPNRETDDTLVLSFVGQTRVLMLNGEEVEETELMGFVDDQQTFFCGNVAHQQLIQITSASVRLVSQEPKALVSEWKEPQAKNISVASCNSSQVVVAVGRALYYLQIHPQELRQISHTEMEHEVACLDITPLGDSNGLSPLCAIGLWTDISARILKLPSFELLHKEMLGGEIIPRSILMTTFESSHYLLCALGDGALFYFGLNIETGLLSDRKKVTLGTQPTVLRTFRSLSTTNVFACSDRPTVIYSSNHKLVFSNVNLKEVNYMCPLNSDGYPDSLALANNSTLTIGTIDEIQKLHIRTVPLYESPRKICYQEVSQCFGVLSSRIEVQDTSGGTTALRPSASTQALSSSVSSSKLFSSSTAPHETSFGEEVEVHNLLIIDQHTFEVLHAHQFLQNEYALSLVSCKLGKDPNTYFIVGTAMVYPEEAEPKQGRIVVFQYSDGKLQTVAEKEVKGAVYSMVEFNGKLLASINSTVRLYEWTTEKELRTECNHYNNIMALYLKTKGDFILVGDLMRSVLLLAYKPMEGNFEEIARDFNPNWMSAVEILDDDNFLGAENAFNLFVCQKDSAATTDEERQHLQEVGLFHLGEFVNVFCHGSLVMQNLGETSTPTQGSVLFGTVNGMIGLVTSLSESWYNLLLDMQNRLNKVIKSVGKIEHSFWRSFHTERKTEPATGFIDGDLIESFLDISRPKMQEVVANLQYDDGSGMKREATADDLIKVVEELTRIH

DC50 (IKZF2 Helios [1]; [3]): 4.4 nM
Dmax (IKZF2 Helios [1]; human, read-out: IKZF2 Helios max % deg. observed): 92%
Dmax (IKZF2 Helios [2]; Regulatory T cell, read-out: IKZF2 Helios max % deg. observed): 96%
DC50 (IKZF2 Helios [2]; [3]): 0.1 nM
Structure (SMILES): Nc1nc(-c2ccc3c(c2F)CN(C2CCC(=O)NC2=O)C3=O)ccc1CN1CC(C2CCC(F)(F)CC2)C1 (stereo not shown) [Example 1, 3-(5-(6-Amino-5-((3-(4,4-difluorocyclohexyl)azetidin-1-yl)methyl)pyridin-2-yl)-4-fluoro-1-oxoisoindolin-2-yl) piperidine-2,6-dione]
